EP2140864A2 (H. Lundbeck A/S, priority 2001, dated 2002)

target: T1, human GAL3 receptor (Homo sapiens, UniProt O60755); assay: Radioligand binding at cloned human GAL3 receptor; details: indolones, cloned human receptor; read-out: Ki GalR3
T1 construct: expressed in transfected cells
T1 sequence (O60755 1-368): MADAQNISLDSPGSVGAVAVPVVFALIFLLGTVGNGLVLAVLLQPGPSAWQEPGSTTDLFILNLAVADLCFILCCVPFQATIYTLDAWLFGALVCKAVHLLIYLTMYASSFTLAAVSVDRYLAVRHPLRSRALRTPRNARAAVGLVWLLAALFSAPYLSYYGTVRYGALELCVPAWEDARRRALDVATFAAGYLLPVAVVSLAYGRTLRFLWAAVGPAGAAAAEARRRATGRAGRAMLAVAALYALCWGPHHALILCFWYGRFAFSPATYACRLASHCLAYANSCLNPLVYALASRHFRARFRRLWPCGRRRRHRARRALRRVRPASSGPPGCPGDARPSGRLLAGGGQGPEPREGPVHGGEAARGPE
Procedure: The present invention provides for a method of determining the binding affinity of a GAL3 antagonist, wherein the GAL3 antagonist is dissolved in a "suitable solvent". A "suitable solvent" means one which permits the measurement of binding affinity of the GAL3 antagonist to the human GAL3 receptor at concentrations less than 1 µM, preferably less than 100 nM. Examples of solvents include, but are not limited to, DMSO, ethanol, N,N-dimethylacetamide, or water. For indolones, the preferred solvent is 3% DMSO (final concentration in the assay). For pyrimidines, the preferred solvent is 1% ethanol/0.09% polypuronic acid F-127 (final concentration in the assay). For any other type of compounds, the preferred solvent is the solvent which permits the measurement of binding affinity of a GAL3 antagonist at the lowest concentration. Once a suitable solvent is ascertained for the binding assay of the human GAL3 receptor, the same solvent is used in assays to determine the binding affinity at the GAL1 receptor, the serotonin transporter, the norepinephrine transporter, and the dopamine transporter. A solvent of 0.4% DMSO is used in the central monoamine oxidase enzyme assay.
The binding properties of the pyrimidines of the present invention were evaluated at the cloned human galanin receptors, GAL1, GAL2, and GAL3, using protocols described herein.
The binding properties of the indolones of the present invention were evaluated at the cloned human galanin receptors, GAL1, GAL2, and GAL3, using protocols described herein.
LM(tk-) cells were stably transfected with the human GAL1 or GAL3 receptor. CHO cells were stably transfected with the human GAL2 receptor.
cDNAs for the human and rat GAL1, and human and rat GAL3 receptors were transfected with a G-418 resistant gene into the mouse fibroblast LM(tk-) cell line by a calcium phosphate transfection method (Cullen, 1987). Stably transfected cells were selected with G-418. Human and rat GAL2 receptors were similarly transfected into CHO cells.
Membranes were harvested from stably transfected LM(tk-) cells. Adherent cells were washed twice in ice-cold phosphate buffered saline (138 mM NaCl, 8.1 mM Na2HPO4, 2.5 mM KCl, 1.2 mM KH2PO4, 0.9 mM CaCl2, 0.5 mM MgCl2, pH 7.4) and lysed by sonication in ice-cold sonication buffer (20 mM Tris-HCl, 5 mM EDTA, pH 7.7). Large particles and debris were cleared by low speed centrifugation (200 x g, 5 min, 4°C). Membranes were collected from the supernatant fraction by centrifugation (32,000 x g, 18 min, 4°C), washed with ice-cold hypotonic buffer, and collected again by centrifugation (32,000 x g, 18 min, 4°C). The final membrane pellet was resuspended by sonication into a small volume of ice-cold binding buffer (-1 ml for every 5 plates: 10 mM NaCl, 20 mM HEPES, 0.22 mM KH2PO4, 1.26 mM CaCl2, 0.81 mM MgSO4, pH 7.4). Protein concentration was measured by the Bradford method (Bradford, 1976) using Bio-Rad Reagent, with bovine serum albumin as a standard. Membranes were held on ice for up to one hour and used fresh, or flash frozen and stored in liquid nitrogen. Membranes were prepared similarly from CHO cells.
Galanin Recentors: Binding assays were performed according to the following published methods: human GAL3 (PCT International Publication No. WO 98/15570), human GAL1 (PCT International Publication No. WO 95/2260), human GAL2 (PCT International Publication No. WO 97/26853).
Binding data were analyzed using nonlinear regression and statistical techniques available in the GraphPAD Prism package (San Diego, CA). Enzymatic assay data were derived from a standard curve of reference compound data.

Point of comparison: `O=C1C(=Nc2cccc(C(F)(F)F)c2)c2ccccc2N1Cc1csc2ccc(Cl)cc12` [Example 111, 1-[(5-CHLORO-1-BENZOTHIEN-3-YL)METHYL]-3-{[3-(TRIFLUOROMETHYL)PHENYL]IMINO}-1,3-DIHYDRO-2H-INDOL-2-ONE], Ki 1180 nM. Against it:
- O=C1C(=Nc2cccc(C(F)(F)F)c2)c2ccccc2N1Cc1ccc(Cl)s1 (mixture of isomers) [Example 108, 1-[(5-CHLORO-2-THIENYL)METHYL]-3-{[3-(TRIFLUOROMETHYL)PHENYL]IMINO}-1,3-DIHYDRO-2H-INDOL-2-ONE] — 14-fold lower, 84 nM
- O=C1C(=Nc2cccc(C(F)(F)F)c2)c2ccccc2N1c1ccsc1 (mixture of isomers) [Example 109, 1-(3-THIENYL)-3-{[3-(TRIFLUOROMETHYL)PHENYL]IMINO}-1,3-DIHYDRO-2H-INDOL-2-ONE] — 11-fold lower, 103 nM
- O=C1C(=Nc2ccc3[nH]ccc3c2)c2ccccc2N1c1ccccc1 (mixture of isomers) [Example 112, 3-(1H-INDOL-5-YLIMINO)-1-PHENYL-1,3-DIHYDRO-2H-INDOL-2-ONE] — 2-fold higher, 2320 nM
- O=C1C(=Nc2ccc(Cl)nc2)c2ccccc2N1c1ccccc1 (mixture of isomers) [Example 113] — 8.7-fold lower, 136 nM
- Cc1nc2cc(N=C3C(=O)N(c4ccccc4)c4ccccc43)ccc2s1 (mixture of isomers) [Example 114, 3-[(2-METHYL-1,3-BENZOTHIAZOL-5-YL)IMINO]-1-PHENYL-1,3-DIHYDRO-2H-INDOL-2-ONE] — 2.1-fold lower, 569 nM

same assay, conditions: pyrimidines, cloned human receptor; read-out: Ki GalR3

Point of comparison: `Cc1ccc(Nc2nc(Nc3cccc(C)c3)cc(N(C)C)n2)cc1` [Example 53], Ki 980 nM. Against it:
- Cc1ccc(Nc2cc(N3CCCCC3)nc(Nc3ccccc3)n2)cc1 [Example 3] — 6-fold lower, 163 nM
- Cc1ccc(Nc2cc(N3CCCCC3)nc(Nc3ccc(C)cc3)n2)cc1 [Example 4] — 1.6-fold lower, 627 nM
- Cc1ccc(Nc2cc(N3CCCCC3)nc(N(C)CCc3c[nH]c4ccccc34)n2)cc1Cl [Example 16] — 30-fold lower, 33 nM
- Cc1ccc(Nc2cc(N3CCCCC3)nc(N3CCN(Cc4ccccc4)CC3)n2)cc1 [Example 23] — 16-fold lower, 60 nM
- Cc1ccc(Nc2cc(N3CCCCC3)nc(N3CCN(c4cccc(C(F)(F)F)n4)CC3)n2)cc1 [Example 33] — 5.4-fold lower, 181 nM
- FC(F)(F)c1cccnc1N1CCN(c2nc(NC3CCCCC3)cc(N3CCCCC3)n2)CC1 [Example 35] — 8.8-fold lower, 111 nM
- Cc1ccc(Nc2cc(N3CCCCC3)nc(N3CCc4ccccc43)n2)cc1 [Example 39] — 7.7-fold lower, 128 nM
- Cc1ccc(Nc2cc(N3CCCCC3)nc(N3Cc4cccc5cccc(c45)C3)n2)cc1 [Example 43] — 9.2-fold lower, 107 nM
- COCCN(CCOC)c1nc(Nc2ccc(C)cc2)cc(N2CCCCC2)n1 [Example 45] — 1.9-fold lower, 505 nM
- CN(C)c1cc(Nc2ccccc2)nc(Nc2ccccc2)n1 [Example 50] — within 1.5-fold, 699 nM
- Cc1ccccc1Nc1cc(N(C)C)nc(Nc2ccccc2)n1 [Example 51] — within 1.5-fold, 987 nM
- Cc1cccc(Nc2cc(N(C)C)nc(Nc3ccccc3)n2)c1 [Example 52] — 1.7-fold lower, 570 nM
- Cc1ccc(Nc2cc(N(C)C)nc(Nc3ccccc3)n2)cc1 [Example 54] — 7.4-fold lower, 132 nM
- Cc1ccc(Nc2cc(N(C)C)nc(Nc3ccc(Cl)c(Cl)c3)n2)cc1 [Example 55] — 20-fold lower, 48 nM
- Cc1ccc(Nc2cc(N(C)C)nc(Nc3ccc(C)cc3)n2)cc1 [Example 56] — within 1.5-fold, 794 nM
- CN(C)c1cc(Nc2cccc(F)c2)nc(Nc2ccccc2)n1 [Example 57] — 2.7-fold lower, 360 nM
- CN(C)c1cc(Nc2ccc(Br)cc2)nc(Nc2ccccc2)n1 [Example 59] — 1.7-fold lower, 566 nM
- CN(C)c1cc(Nc2ccc(C(C)(C)C)cc2)nc(Nc2ccccc2)n1 [Example 63] — within 1.5-fold, 731 nM
- CN(C)c1cc(Nc2ccc(Oc3ccccc3)cc2)nc(Nc2ccccc2)n1 [Example 64] — 1.7-fold lower, 572 nM
- CN(C)c1cc(Nc2ccc3ccccc3c2)nc(Nc2ccccc2)n1 [Example 65] — 3-fold lower, 329 nM
- CN(C)c1cc(NC2CCCCC2)nc(Nc2ccccc2)n1 [Example 66] — within 1.5-fold, 699 nM
- Cc1ccc(Nc2cc(N(C)C)nc(N3CCN(S(=O)(=O)c4ccc(C)cc4)CC3)n2)cc1 [Example 84] — 3.8-fold lower, 261 nM
- Cc1ccc(Nc2cc(N(C)C)nc(N3CCN(c4cccc(C)c4)CC3)n2)cc1 [Example 86] — 4.3-fold lower, 227 nM
- CN(C)c1cc(Nc2cccc(OCc3ccccc3)c2)nc(N2CCN(c3ccccn3)CC2)n1 [Example 115] — 75-fold lower, 13 nM
- Cc1ccc(Nc2cc(N(C)C)nc(N3CCN(c4ccc(O)cc4)CC3)n2)cc1 [Example 116] — 2-fold lower, 479 nM
- CN(C)c1cc(Nc2ccc(OCc3ccccc3)cc2)nc(N2CCN(c3ccccn3)CC2)n1 [Example 117] — 16-fold lower, 61 nM
- CN(C)c1cc(Nc2ccc3c(c2)OCO3)nc(N2CCN(c3ccccn3)CC2)n1 [Example 118] — 1.9-fold lower, 508 nM
- CN(C)c1cc(Nc2ccc3c(c2)OCCO3)nc(N2CCN(c3ccccn3)CC2)n1 [Example 119] — 1.8-fold lower, 540 nM
- CN(C)c1cc(Nc2cncc3ccccc23)nc(N2CCN(c3ccccn3)CC2)n1 [Example 120] — within 1.5-fold, 664 nM
- CN(C)c1cc(Nc2ccc(C3CCCCC3)cc2)nc(N2CCN(c3ccccn3)CC2)n1 [Example 121] — 47-fold lower, 21 nM
- CN(C)c1cc(Nc2cccc3c2CCCC3)nc(N2CCN(c3ccccn3)CC2)n1 [Example 122] — 15-fold lower, 65 nM
- CN(C)c1cc(Nc2ccc3c(c2)CCC3)nc(N2CCN(c3ccccn3)CC2)n1 [Example 123] — 16-fold lower, 61 nM
- CN(C)c1cc(Nc2ccc(Cl)c(Cl)c2)nc(N2CCN(c3ccccn3)CC2)n1 [Example 124] — 27-fold lower, 36 nM
- CN(C)c1cc(Nc2cccc(C(F)(F)F)c2)nc(N2CCN(c3ccccn3)CC2)n1 [Example 125] — 13-fold lower, 75 nM
- CN(C)c1cccc(Nc2cc(N(C)C)nc(N3CCN(Cc4ccccc4)CC3)n2)c1 [Example 126] — 9.9-fold lower, 99 nM
- Cc1nc2cc(Nc3cc(N(C)C)nc(N4CCN(Cc5ccccc5)CC4)n3)ccc2s1 [Example 127] — 3.8-fold lower, 255 nM
- CN(C)c1cc(NC2CCCCCC2)nc(N2CCN(Cc3ccccc3)CC2)n1 [Example 128] — 3.9-fold lower, 249 nM
- CN(C)c1cc(Nc2ccc(C#N)c(Cl)c2)nc(N2CCN(Cc3ccccc3)CC2)n1 [Example 129] — 2.4-fold lower, 405 nM
- CN(C)c1cc(NC2C3(C)CCC(C3)C2(C)C)nc(N2CCN(Cc3ccccc3)CC2)n1 (stereo not shown) [Example 130] — 9.8-fold lower, 100 nM
- Cc1ccc(Nc2cc(N(C)C)nc(N3CCN(c4cccc(OCc5ccccc5)c4)CC3)n2)cc1 [Example 131] — 49-fold lower, 20 nM
- CN(C)c1cc(Nc2cnc3ccccc3c2)nc(N2CCN(c3ccccn3)CC2)n1 [Example 132] — 1.6-fold lower, 618 nM
- CN(C)c1cc(Nc2ccc(Br)c(C(F)(F)F)c2)nc(N2CCN(c3ccccn3)CC2)n1 [Example 133] — 16-fold lower, 60 nM
- CN(C)c1cc(Nc2ccc(SC(F)(F)F)c(Cl)c2)nc(N2CCN(c3ccccn3)CC2)n1 [Example 134] — 39-fold lower, 25 nM
- CCOc1cccc(Nc2cc(N(C)C)nc(N3CCN(c4ccccn4)CC3)n2)c1 [Example 135] — 9.8-fold lower, 100 nM
- CN(C)c1cc(Nc2ccc(C(F)(F)F)cc2Cl)nc(N2CCN(c3ccccn3)CC2)n1 [Example 136] — 39-fold lower, 25 nM
- CN(C)c1cc(NC2C3CC4CC(C3)CC2C4)nc(N2CCN(Cc3ccccc3)CC2)n1 (stereo not shown) [Example 137] — 7.9-fold lower, 124 nM
- CN(C)c1cc(NC23CC4CC(CC(C4)C2)C3)nc(N2CCN(Cc3ccccc3)CC2)n1 [Example 138] — 19-fold lower, 52 nM
- C[C@H]1[C@H](Nc2cc(N(C)C)nc(N3CCN(Cc4ccccc4)CC3)n2)C[C@@H]2C[C@@H]1C2(C)C [Example 139] — 21-fold lower, 47 nM
